Experimental findings from US10004701B2, “Methods and compositions for treating infection” (UNIVERSITY OF ROCHESTER, priority 2012, dated 2018) are described below.

Where a name gives a salt, the structure may show the parent alone. Read-outs that look alike come from different tables or passages of the source.

Holding throughout (assay): AK assay 384-well format, Prestwick library screening
One assay concerns P. aeruginosa. The assay is classed as cell-based, Pseudomonas aeruginosa. Conditions: 50 μM final drug concentration; for fold induction at 50 µM: Pseudomonas aeruginosa, 3 h.
In assay [1] the test system is A. baumannii strain 98-37-09. The assay is classed as cell-based, Acinetobacter baumannii. The settings on record: 50 μM final drug concentration; for fold induction at 50 µM: Acinetobacter baumannii, 983709, 3 h.
Assay [2] concerns S. aureus strain USA300-0114. The assay is classed as cell-based, Staphylococcus aureus. The settings on record: 50 μM final drug concentration; for fold induction at 50 µM: Staphylococcus aureus, USA300, 3 h.
The subject of a further assay is E. cloacae. The assay is classed as cell-based, Enterobacter cloacae. The settings on record: 50 μM final drug concentration; for fold induction at 50 µM: Enterobacter cloacae, 3 h.
Another assay concerns E. coli. The format is cell-based, Escherichia coli. The settings on record: 50 μM final drug concentration; for fold induction at 50 µM: Escherichia coli, 3 h.
For another assay, the system named is E. faecium. The format is cell-based, Enterococcus faecium. Conditions: 50 μM final drug concentration; for fold induction at 50 µM: Enterococcus faecium, 3 h.
The next assay relates to K. pneumoniae. The format is cell-based, Klebsiella pneumoniae. Conditions: 50 μM final drug concentration; for fold induction at 50 µM: Klebsiella pneumoniae, 3 h.
[3] abbreviates: planktonic P. aeruginosa, cutoff for positive-scoring molecules 3-fold increase, read-out: AK-based Prestwick Library Screening Results, P. aeruginosa (increase in extracellular AK activity).
Setting [4] is: planktonic A. baumannii, cutoff for positive-scoring molecules 3-fold increase, read-out: AK-based Prestwick Library Screening Results, A. baumannii (increase in extracellular AK activity).
[5] abbreviates: planktonic S. aureus, cutoff for positive-scoring molecules 3-fold increase, read-out: AK-based Prestwick Library Screening Results, S. aureus (increase in extracellular AK activity).
The mark [6] stands for this setting: planktonic E. cloacae, cutoff for positive-scoring molecules 3-fold increase, read-out: AK-based Prestwick Library Screening Results, E. cloacae (increase in extracellular AK activity).
The mark [7] stands for this setting: planktonic E. coli, cutoff for positive-scoring molecules 3-fold increase, read-out: AK-based Prestwick Library Screening Results, E. coli (increase in extracellular AK activity).
[8] abbreviates: planktonic E. faecium, cutoff for positive-scoring molecules 3-fold increase, read-out: AK-based Prestwick Library Screening Results, E. faecium (increase in extracellular AK activity).
The mark [9] stands for this setting: planktonic K. pneumoniae, cutoff for positive-scoring molecules 3-fold increase, read-out: AK-based Prestwick Library Screening Results, K. pneumoniae (increase in extracellular AK activity).
Where [10] appears, read: cutoff for positive-scoring molecules 3-fold increase, read-out: AK-based Prestwick Library Screening Results, P. aeruginosa (fold increase in extracellular AK activity).
Setting [11] is: cutoff for positive-scoring molecules 3-fold increase, read-out: AK-based Prestwick Library Screening Results, A. baumannii (fold increase in extracellular AK activity).
The mark [12] stands for this setting: cutoff for positive-scoring molecules 3-fold increase, read-out: AK-based Prestwick Library Screening Results, S. aureus (fold increase in extracellular AK activity).
Where [13] appears, read: cutoff for positive-scoring molecules 3-fold increase, read-out: AK-based Prestwick Library Screening Results, E. cloacae (fold increase in extracellular AK activity).
[14] abbreviates: cutoff for positive-scoring molecules 3-fold increase, read-out: AK-based Prestwick Library Screening Results, E. coli (fold increase in extracellular AK activity).
[15] abbreviates: cutoff for positive-scoring molecules 3-fold increase, read-out: AK-based Prestwick Library Screening Results, E. faecium (fold increase in extracellular AK activity).
The mark [16] stands for this setting: cutoff for positive-scoring molecules 3-fold increase, read-out: AK-based Prestwick Library Screening Results, K. pneumoniae (fold increase in extracellular AK activity).

Turning to `CN1CCc2cc3c(cc2[C@H]1[C@@H]1OC(=O)c2c1ccc1c2OCO1)OCO3` [Bicuculline (+)], the “AK-based Prestwick Library Screening Results, P. aeruginosa (increase in extracellular AK activity)” value in the assay on P. aeruginosa (planktonic P. aeruginosa, […]) is recorded as 0.9. In addition, in assay [1] (planktonic A. baumannii, […]), the “AK-based Prestwick Library Screening Results, A. baumannii (increase in extracellular AK activity)” value worked out at 0.8. For the same compound, the “AK-based Prestwick Library Screening Results, S. aureus (increase in extracellular AK activity)” value in assay [2] (planktonic S. aureus, […]) turned out to be 0.6. Besides, the “AK-based Prestwick Library Screening Results, E. cloacae (increase in extracellular AK activity)” value in the assay on E. cloacae (planktonic E. cloacae, […]) was found to be 0.9. The “AK-based Prestwick Library Screening Results, E. coli (increase in extracellular AK activity)” value in the assay with E. coli (planktonic E. coli, […]) came out at 0.8. The “AK-based Prestwick Library Screening Results, E. faecium (increase in extracellular AK activity)” value with E. faecium (planktonic E. faecium, […]) came out at 0.9. Also, the “AK-based Prestwick Library Screening Results, K. pneumoniae (increase in extracellular AK activity)” value in the assay with K. pneumoniae (planktonic K. pneumoniae, […]) amounted to 0.8.

Regarding `OC(CCN1CCCCC1)(c1ccccc1)C1CC2C=CC1C2` (stereo not shown) [Biperiden hydrochloride], the fold induction at 50 µM with P. aeruginosa (setting [3]) was 0.8; in assay [1] (setting [4]), 0.8; in assay [2] (setting [5]), 0.6; in the assay with E. cloacae (setting [6]), 0.9; in the assay with E. coli (setting [7]), 1; in the assay with E. faecium (setting [8]), 0.9. Moreover, the fold induction at 50 µM in the assay with K. pneumoniae (setting [9]) was 0.8.

For `CC(=O)Oc1ccc(C(c2ccc(OC(C)=O)cc2)c2ccccn2)cc1` [Bisacodyl], the fold induction at 50 µM turned out to be 0.6 in the assay on P. aeruginosa (setting [3]); 0.8 in assay [1] (setting [4]); 0.5 in assay [2] (setting [5]); 0.9 in the assay with E. cloacae (setting [6]); 0.6 with E. coli (setting [7]); 1 with E. faecium (setting [8]). Moreover, the fold induction at 50 µM in the assay on K. pneumoniae (setting [9]) worked out at 0.6.

For `CC(C)NCC(O)COc1ccc(COCCOC(C)C)cc1` (stereo not shown) [Bisoprolol fumarate], the fold induction at 50 µM was determined as 0.5 with P. aeruginosa (planktonic P. aeruginosa, 384-well, cutoff for positive-scoring molecules 3-fold increase, read-out: AK-based Prestwick Library Screening Results: P. aeruginosa (increase in extracellular AK activity)); 0.5 in assay [1] (planktonic A. baumannii, 384-well, cutoff for positive-scoring molecules 3-fold increase, read-out: AK-based Prestwick Library Screening Results: A. baumannii (increase in extracellular AK activity)); 0.6 in assay [2] (planktonic S. aureus, 384-well, cutoff for positive-scoring molecules 3-fold increase, read-out: AK-based Prestwick Library Screening Results: S. aureus (increase in extracellular AK activity)); 0.6 in the assay with E. cloacae (planktonic E. cloacae, 384-well, cutoff for positive-scoring molecules 3-fold increase, read-out: AK-based Prestwick Library Screening Results: E. cloacae (increase in extracellular AK activity)); 0.5 in the assay with E. coli (planktonic E. coli, 384-well, cutoff for positive-scoring molecules 3-fold increase, read-out: AK-based Prestwick Library Screening Results: E. coli (increase in extracellular AK activity)); 0.9 in the assay on E. faecium (planktonic E. faecium, 384-well, cutoff for positive-scoring molecules 3-fold increase, read-out: AK-based Prestwick Library Screening Results: E. faecium (increase in extracellular AK activity)). For the same compound, the fold induction at 50 µM in the assay on K. pneumoniae (planktonic K. pneumoniae, 384-well, cutoff for positive-scoring molecules 3-fold increase, read-out: AK-based Prestwick Library Screening Results: K. pneumoniae (increase in extracellular AK activity)) is 0.5.

As to `COc1cc2c(cc1O)C[C@H]1c3c(cc(O)c(OC)c3-2)CCN1C` [Boldine], the fold induction at 50 µM with P. aeruginosa (planktonic P. aeruginosa, […], read-out: AK-based Prestwick Library Screening Results, P. aeruginosa (increase in extracellular AK activity)) stood at 0.9; in assay [1] (planktonic A. baumannii, […], read-out: AK-based Prestwick Library Screening Results, A. baumannii (increase in extracellular AK activity)), 0.8; in assay [2] (planktonic S. aureus, […], read-out: AK-based Prestwick Library Screening Results, S. aureus (increase in extracellular AK activity)) it was 0.8; in the assay with E. cloacae (planktonic E. cloacae, […], read-out: AK-based Prestwick Library Screening Results, E. cloacae (increase in extracellular AK activity)) it was 1.2; with E. coli (planktonic E. coli, […], read-out: AK-based Prestwick Library Screening Results, E. coli (increase in extracellular AK activity)) it was 0.9; in the assay on E. faecium (planktonic E. faecium, […], read-out: AK-based Prestwick Library Screening Results, E. faecium (increase in extracellular AK activity)), 0.9. For the same compound, in the assay with K. pneumoniae (planktonic K. pneumoniae, […], read-out: AK-based Prestwick Library Screening Results, K. pneumoniae (increase in extracellular AK activity)), the fold induction at 50 µM is 0.7.

Consider `CC[N+](C)(C)Cc1ccccc1Br` [Bretylium tosylate], for which the fold induction at 50 µM was found to be 1.2 in the assay with P. aeruginosa (setting [10]); 1.3 in assay [1] (setting [11]); 1.3 in assay [2] (setting [12]); 1.6 in the assay on E. cloacae (setting [13]); 1.3 with E. coli (setting [14]); 1 with E. faecium (setting [15]). In addition, the fold induction at 50 µM in the assay with K. pneumoniae (setting [16]) worked out at 1.1.

As to `CCN[C@H]1CN(CCCOC)S(=O)(=O)c2sc(S(N)(=O)=O)cc21` [Brinzolamide], the fold induction at 50 µM in the assay with P. aeruginosa (setting [3]) was 1.1; in assay [1] (setting [4]) it was 1.1; in assay [2] (setting [5]) it was 1; in the assay on E. cloacae (setting [6]), 1.5; in the assay on E. coli (setting [7]), 1.1; in the assay on E. faecium (setting [8]), 1.4. In addition, in the assay with K. pneumoniae (setting [9]), the fold induction at 50 µM worked out at 0.9.

With `CCN(CC)CCNC(=O)c1cc(Br)c(N)cc1OC` [Bromopride], the fold induction at 50 µM in the assay with P. aeruginosa (setting [10]) was 1.1; in assay [1] (setting [11]), 1.3; in assay [2] (setting [12]), 1.3; in the assay on E. cloacae (setting [13]) it was 1.3; in the assay on E. coli (setting [14]) it was 1.3; with E. faecium (setting [15]), 0.9. Moreover, the fold induction at 50 µM with K. pneumoniae (setting [16]) was 1.

In the case of `O=C(CCCN1CCC(O)(c2ccc(Br)cc2)CC1)c1ccc(F)cc1` [Bromperidol], the fold induction at 50 µM in the assay with P. aeruginosa (setting [3]) is 1.1; in assay [1] (setting [4]), 1; in assay [2] (setting [5]), 0.7; in the assay with E. cloacae (setting [6]), 1.1; in the assay with E. coli (setting [7]), 0.8; with E. faecium (setting [8]) it was 0.9. Besides, the fold induction at 50 µM with K. pneumoniae (setting [9]) is 0.7.

For the compound `CN(C)CCC(c1ccc(Br)cc1)c1ccccn1` (stereo not shown) [Brompheniramine maleate], the fold induction at 50 µM stood at 1.1 in the assay with P. aeruginosa (planktonic, cutoff for positive 3-fold increase, read-out: AK-based Prestwick Library Screening Results, P. aeruginosa (fold increase in extracellular AK activity)); 1.2 in assay [1] (planktonic, cutoff for positive 3-fold increase, read-out: AK-based Prestwick Library Screening Results, A. baumannii (fold increase in extracellular AK activity)); 1.1 in assay [2] (planktonic, cutoff for positive 3-fold increase, read-out: AK-based Prestwick Library Screening Results, S. aureus (fold increase in extracellular AK activity)); 2 in the assay with E. cloacae (planktonic, cutoff for positive 3-fold increase, read-out: AK-based Prestwick Library Screening Results, E. cloacae (fold increase in extracellular AK activity)); 1.4 with E. coli (planktonic, cutoff for positive 3-fold increase, read-out: AK-based Prestwick Library Screening Results, E. coli (fold increase in extracellular AK activity)); 1 in the assay on E. faecium (planktonic, cutoff for positive 3-fold increase, read-out: AK-based Prestwick Library Screening Results, E. faecium (fold increase in extracellular AK activity)). Further, the fold induction at 50 µM in the assay on K. pneumoniae (planktonic, cutoff for positive 3-fold increase, read-out: AK-based Prestwick Library Screening Results, K. pneumoniae (fold increase in extracellular AK activity)) worked out at 1.1.
